Source: patent publication US9302999B2, “Substituted triazoles as herbicides” (E. I. DU PONT DE NEMOURS AND COMPANY, priority 2012, dated 2016)

What was measured:
Format in all cases: in vivo
[1] = system: morningglory (Ipomoea spp.); experiment: Test A pre-/postemergence: morningglory; conditions: for Morningglory plant response rating: Postemergence; for Plant response rating, Morningglory: Preemergence
Summary of the method: (§1)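 Soil medium was loam blended with sand; treatments pre- and postemergence were applied concurrently, postemergence at one- to two-leaf stage. Approximately ten days in greenhouse preceded visual comparison with untreated controls, scored 0 (no effect) to 100 (complete control).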

[2] = system: crabgrass, large (large crabgrass, Digitaria sanguinalis); experiment: Test A pre-/postemergence: crabgrass, large; conditions: for Crabgrass, Large plant response rating: Postemergence; for Plant response rating, Crabgrass, Large: Preemergence
Summary of the method: as §1

[3] = system: sedge, umbrella (small-flower umbrella sedge, Cyperus difformis); experiment: Test C flooded paddy test: sedge, umbrella; conditions: scale 0 to 100 (0 no effect, 100 complete control)
Summary of the method: (§2)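 2-leaf stage plants; pots flooded 3 cm above soil; compound applied into paddy water, depth maintained. Greenhouse 13–15 d. Visual rating vs controls, 0–100 (0 = no effect, 100 = complete control); dash = no result.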

[4] = system: velvetleaf (Abutilon theophrasti); experiment: Test A pre-/postemergence: velvetleaf; conditions: for Velvetleaf plant response rating: Postemergence; for Plant response rating, Velvetleaf: Preemergence
Summary of the method: as §1

rice (Oryza sativa) = experiment: Test C flooded paddy test: rice; conditions: scale 0 to 100 (0 no effect, 100 complete control)
Summary of the method: as §2

[5] = system: foxtail, giant (giant foxtail, Setaria faberii); experiment: Test A pre-/postemergence: foxtail, giant; conditions: for Foxtail, Giant plant response rating: Postemergence; for Plant response rating, Foxtail, Giant: Preemergence
Summary of the method: as §1

corn (Zea mays) = experiment: Test A pre-/postemergence: corn; conditions: for Corn plant response rating: Postemergence; for Plant response rating, Corn: Preemergence
Summary of the method: as §1

[6] = system: ducksalad (Heteranthera limosa); experiment: Test C flooded paddy test: ducksalad; conditions: scale 0 to 100 (0 no effect, 100 complete control)
Summary of the method: as §2

[7] = system: barnyardgrass (Echinochloa crus-galli); experiment: Test A pre-/postemergence: barnyardgrass; conditions: for Barnyardgrass plant response rating: Postemergence; for Plant response rating, Barnyardgrass: Preemergence
Summary of the method: as §1

[8] = system: barnyardgrass (Echinochloa crus-galli); experiment: Test C flooded paddy test: barnyardgrass; conditions: scale 0 to 100 (0 no effect, 100 complete control)
Summary of the method: as §2

[9] = system: pigweed (Amaranthus retroflexus); experiment: Test A pre-/postemergence: pigweed; conditions: for Pigweed plant response rating: Postemergence; for Plant response rating, Pigweed: Preemergence
Summary of the method: as §1

[10] = system: wheat (Triticum aestivum); experiment: Test A pre-/postemergence: wheat; conditions: for Wheat plant response rating: Postemergence; for Plant response rating, Wheat: Preemergence
Summary of the method: as §1

[11] = 125 g ai/ha, 0 to 100 scale, 0 is no effect, 100 is complete control
[12] = 500 g ai/ha, visual rating on 0 to 100 scale (0 no effect, 100 complete control), approximately ten days
[13] = 125 g ai/ha, 0 to 100 scale (0 no effect, 100 complete control)
[14] = 500 g ai/ha, 0 to 100 scale, 0 is no effect, 100 is complete control
[15] = Flood (flooded paddy test), 125 g ai/ha, visual rating after 13 to 15 days
[16] = Flood (flooded paddy test), 250 g ai/ha, visual rating after 13 to 15 days

Cc1nn(-c2ccc(C(F)(F)F)cc2)nc1Oc1cccc(Cl)c1 [Compound 84]
Morningglory plant response rating [1, 11]: 30 | Morningglory plant response rating [1, 12]: 30 | Plant response rating, Morningglory [1, 13]: 0 | Plant response rating, Morningglory [1, 14]: 0 | Crabgrass, Large plant response rating [2, 11]: 10 | Crabgrass, Large plant response rating [2, 12]: 50 | Plant response rating, Crabgrass, Large [2, 13]: 0 | Plant response rating, Crabgrass, Large [2, 14]: 60 | Plant response rating, Sedge, Umbrella [3, 15]: 0 | Plant response rating, Sedge, Umbrella [3, 16]: 20 | Plant response rating, Sedge, Umbrella ([3]; Flood, 31 g ai/ha): 0 | Plant response rating, Sedge, Umbrella ([3]; Flood, 62 g ai/ha): 0 | Velvetleaf plant response rating [4, 11]: 10 | Velvetleaf plant response rating [4, 12]: 20 | Plant response rating, Velvetleaf [4, 13]: 0 | Plant response rating, Velvetleaf [4, 14]: 0 | Plant response rating, Rice (rice (Oryza sativa); [15]): 20 | Plant response rating, Rice (rice (Oryza sativa); [16]): 20 | Plant response rating, Rice (rice (Oryza sativa); Flood, 31 g ai/ha): 0 | Plant response rating, Rice (rice (Oryza sativa); Flood, 62 g ai/ha): 0 | Foxtail, Giant plant response rating [5, 11]: 10 | Foxtail, Giant plant response rating [5, 12]: 20 | Plant response rating, Foxtail, Giant [5, 13]: 0 | Plant response rating, Foxtail, Giant [5, 14]: 30 | Corn plant response rating (corn (Zea mays); [11]): 10 | Corn plant response rating (corn (Zea mays); [12]): 30 | Plant response rating, Corn (corn (Zea mays); [13]): 0 | Plant response rating, Corn (corn (Zea mays); [14]): 0 | Plant response rating, Ducksalad [6, 15]: 0 | Plant response rating, Ducksalad [6, 16]: 40 | Plant response rating, Ducksalad ([6]; Flood, 31 g ai/ha): 0 | Plant response rating, Ducksalad ([6]; Flood, 62 g ai/ha): 0 | Barnyardgrass plant response rating [7, 11]: 0 | Barnyardgrass plant response rating [7, 12]: 10 | Plant response rating, Barnyardgrass [7, 13]: 0 | Plant response rating, Barnyardgrass [7, 14]: 0 | Plant response rating, Barnyardgrass [8, 15]: 0 | Plant response rating, Barnyardgrass [8, 16]: 10 | Plant response rating, Barnyardgrass ([8]; Flood, 31 g ai/ha): 0 | Plant response rating, Barnyardgrass ([8]; Flood, 62 g ai/ha): 0 | Pigweed plant response rating [9, 11]: 40 | Pigweed plant response rating [9, 12]: 90 | Plant response rating, Pigweed [9, 13]: 0 | Plant response rating, Pigweed [9, 14]: 50 | Wheat plant response rating [10, 11]: 0 | Wheat plant response rating [10, 12]: 0 | Plant response rating, Wheat [10, 13]: 0 | Plant response rating, Wheat [10, 14]: 0

Cc1nn(-c2ccc(C(F)(F)F)cc2)nc1Sc1cccc(C(F)(F)F)c1 [Compound 88]
Morningglory plant response rating [1, 11]: 10 | Morningglory plant response rating [1, 12]: 50 | Plant response rating, Morningglory [1, 13]: 0 | Plant response rating, Morningglory [1, 14]: 0 | Crabgrass, Large plant response rating [2, 11]: 30 | Crabgrass, Large plant response rating [2, 12]: 80 | Plant response rating, Crabgrass, Large [2, 13]: 0 | Plant response rating, Crabgrass, Large [2, 14]: 50 | Plant response rating, Sedge, Umbrella [3, 15]: 0 | Plant response rating, Sedge, Umbrella [3, 16]: 0 | Plant response rating, Sedge, Umbrella ([3]; Flood, 31 g ai/ha): 0 | Plant response rating, Sedge, Umbrella ([3]; Flood, 62 g ai/ha): 0 | Velvetleaf plant response rating [4, 11]: 10 | Velvetleaf plant response rating [4, 12]: 80 | Plant response rating, Velvetleaf [4, 13]: 0 | Plant response rating, Velvetleaf [4, 14]: 0 | Plant response rating, Rice (rice (Oryza sativa); [15]): 0 | Plant response rating, Rice (rice (Oryza sativa); [16]): 0 | Plant response rating, Rice (rice (Oryza sativa); Flood, 31 g ai/ha): 0 | Plant response rating, Rice (rice (Oryza sativa); Flood, 62 g ai/ha): 0 | Foxtail, Giant plant response rating [5, 11]: 10 | Foxtail, Giant plant response rating [5, 12]: 40 | Plant response rating, Foxtail, Giant [5, 13]: 0 | Plant response rating, Foxtail, Giant [5, 14]: 40 | Corn plant response rating (corn (Zea mays); [11]): 0 | Corn plant response rating (corn (Zea mays); [12]): 10 | Plant response rating, Corn (corn (Zea mays); [13]): 0 | Plant response rating, Corn (corn (Zea mays); [14]): 0 | Plant response rating, Ducksalad [6, 15]: 0 | Plant response rating, Ducksalad [6, 16]: 0 | Plant response rating, Ducksalad ([6]; Flood, 31 g ai/ha): 0 | Plant response rating, Ducksalad ([6]; Flood, 62 g ai/ha): 0 | Barnyardgrass plant response rating [7, 11]: 10 | Barnyardgrass plant response rating [7, 12]: 20 | Plant response rating, Barnyardgrass [7, 13]: 0 | Plant response rating, Barnyardgrass [7, 14]: 10 | Plant response rating, Barnyardgrass [8, 15]: 0 | Plant response rating, Barnyardgrass [8, 16]: 0 | Plant response rating, Barnyardgrass ([8]; Flood, 31 g ai/ha): 0 | Plant response rating, Barnyardgrass ([8]; Flood, 62 g ai/ha): 0 | Pigweed plant response rating [9, 11]: 80 | Pigweed plant response rating [9, 12]: 100 | Plant response rating, Pigweed [9, 13]: 0 | Plant response rating, Pigweed [9, 14]: 50 | Wheat plant response rating [10, 11]: 0 | Wheat plant response rating [10, 12]: 10 | Plant response rating, Wheat [10, 13]: 0 | Plant response rating, Wheat [10, 14]: 0
